# In US20250228887A1, “OPHTHALMIC COMPOSITION” (ROHTO PHARMACEUTICAL CO., LTD., priority 2021, published 2025):
# Columns and labels:
# rabbits = assay: Drought stress test using rabbits (first invention, Test Example 1); format: in vivo, Japanese white rabbits; conditions: 0.5 w/v % or 3 w/v % in saline, 100 μL per eye, eyelids open 3 hours; compared with Mw about 25,000; **p<0.01 Tukey; FIG. 1
# Protocol: Each test substance was prepared by dissolving sodium chondroitin sulfate having a weight-average-molecular weight of about 25,000 (commercially available from Maruha Nichiro Corporation; over-the-counter sodium chondroitin sulfate) or sodium chondroitin sulfate having a weight-average-molecular weight of about 56,000 (commercially available from Seikagaku Corporation; Grade N-K) so that the content was 0.5 w/v % or 3 w/v %, respectively, in a saline (commercially available from Otsuka Pharmaceutical Factory, Inc.).
# According to the method used by Nagano et al. (New Ophthalmology, 13(2), 267-270, 1996), rabbits divided into 5 groups (n=5) (Japanese white rabbits (commercially available from Kitayama Labes Co. Ltd.)) were subjected to general anesthesia, and then gloves with ring-shaped fingers were put on their left and right eyeballs and the eyelids were forcibly opened. […] After the cornea was removed from the ocular surface, the methylene blue dye was extracted, and the absorbance was measured using a microplate reader Multiskan GO (commercially available from Thermo Fisher Scientific) at 660 nm. Here, eye dryness caused corneal damage, and increased the amount of dye adhered to the cornea surface, and thus it could be evaluated that the higher the absorbance value, the drier the eyes were.
# [1] = tested on: human corneal epithelial cell line HCE-T cells; assay: Cell dry test (first invention, Test Example 13); format: cell-based; conditions: 8, 13, 14 vs test solution 4; 11, 12 vs test solution 5; 1% vs 0.5%
# Protocol: Ophthalmic compositions were prepared according to a general method using the formulations shown in Table 12 and used as test solutions. The units of the components in Table 12 are w/v % unless specified in the table. 100 μL of human corneal epithelial cell line HCE-T cells at a concentration of 1×10^5 cells/mL was seeded in each well in a 96-well plate (commercially available from Corning Inc.), and cultured in a CO2 incubator set at 37° C., a humidity of 90%, and a concentration of 5% CO2 until the cells became confluent. […] After each ophthalmic composition was removed by suction from each well, drought stress was applied by leaving it in a clean bench for 20 minutes, and the number of viable cells was then evaluated. In order to evaluate the number of viable cells, 10 μL of a cell number measurement reagent (Cell counting kit-8, commercially available from Dojindo Molecular Technologies, Inc.) per 100 μL of the medium was put into each well, and culturing was performed under conditions of 37° C., 5% CO2, and a humidity of 90% for 2 to 3 hours, and measurement was then performed using an absorbance meter (commercially available from MOLECULAR DEVICES) at 450 nm. Here, the higher the value of the absorbance, the greater the number of viable cells.
substance,measurement,setting,value
sodium chondroitin sulfate,"absorbance at 660 nm of methylene blue dye extracted from the cornea (corneal damage caused by eye dryness), in words",rabbits,significantly lower absorbance
same,"number of viable cells after drought stress, comparison in words",[1],the number of viable cells significantly increased at 1%
